Numbers after ± are expanded uncertainties.
Key:
[1] = refractive index (other wavelength) (dimensionless); conditions: 101 kPa, Liquid, Wavelength=632.8 nm, Standard Abbe refractometry
[2] = refractive index (other wavelength) (dimensionless); xn = mol fraction of the nth substance listed; conditions: 101 kPa, Liquid, Wavelength=632.8 nm, Standard Abbe refractometry, x2 = 0

N#Cc1ccccc1 [benzonitrile]
refractive index ([1]; 278.24 K): 1.5324 ± 0.0008 | refractive index ([1]; 279.25 K): 1.5319 ± 0.0008 | refractive index ([1]; 281.33 K): 1.5308 ± 0.0008 | refractive index ([1]; 282.96 K): 1.5301 ± 0.0008 | refractive index ([1]; 284.3 K): 1.5294 ± 0.0008 | refractive index ([1]; 285.43 K): 1.5288 ± 0.0008

CCCCCCCCC [nonane]
refractive index ([1]; 278.08 K): 1.4111 ± 0.0008 | refractive index ([1]; 279.19 K): 1.4106 ± 0.0008 | refractive index ([1]; 280.4 K): 1.4101 ± 0.0008 | refractive index ([1]; 281.48 K): 1.4095 ± 0.0008 | refractive index ([1]; 282.59 K): 1.409 ± 0.0008 | refractive index ([1]; 283.65 K): 1.4085 ± 0.0008 | refractive index ([1]; 284.91 K): 1.4079 ± 0.0008

CCCCCCCCC [nonane] + N#Cc1ccccc1
refractive index ([2]; 278.08 K): 1.4111 ± 0.0008 | refractive index ([2]; 279.19 K): 1.4106 ± 0.0008 | refractive index ([2]; 280.4 K): 1.4101 ± 0.0008 | refractive index ([2]; 281.48 K): 1.4095 ± 0.0008 | refractive index ([2]; 282.59 K): 1.409 ± 0.0008 | refractive index ([2]; 283.65 K): 1.4085 ± 0.0008 | refractive index ([2]; 284.91 K): 1.4079 ± 0.0008

— the NIST ThermoML archive (doi:10.1016/j.jct.2010.02.009)
